Laboratory results as given in US20240009174A1, “METHODS FOR DISRUPTING MITOCHONDRIAL UNFOLDED PROTEIN RESPONSE” (Health Research, Inc., priority 2020, published 2024).

Legend:
[1] = system: 22RV1 (AR positive) xenografts; experiment: 22RV1 xenograft in SCID mice; type: in vivo; settings: 60 mg/kg bw
Experimental: FIG. 8. Pharmacological inhibition of HSP60-ClpP inhibit oncogenic signaling and PCa tumor growth in vivo. (A) LNCaP, PC-3 and 22RV1 cells were treated with DCEM1 and analyzed for c-Myc and EZH2 protein expression after 24 hours of treatment. (B) LNCaP, 22RV1 and VCaP cells were treated with DCEM1 and analyzed for AR and PSA protein expression after 24 hours of treatment. (C-D) 22RV1 cells (1×10^6 cells) were mixed with matrigel (50:50 v/v) and injected into each flank of SCID mice and treated with DCEM1 (60 mg/kg bw) through IP route twice weekly and tumors were harvested, photographed (C) and weighed (D) at 30 days. (E) DEVDase activity were analyzed in 22RV1 xenograft tumor tissue following DCEM1 treatment and represented as fold change compared to control. (F) 22RV1 xenograft tissue were sectioned and expression of ki67, c-Myc and EZH2 proteins were analyzed by Immunohistochemistry as described in material and methods. (G-H) PC-3 cells (1×10^6 cells) were mixed with matrigel (50:50 v/v) and injected into each flank of SCID mice and treated with DCEM1 (60 mg/kg bw) through IP route twice weekly and tumors were harvested, photographed (G) and weighed (H) at 35 days. (I) DEVDase activity were analyzed in PC-3 xenograft tumor tissue following DCEM1 treatment and represented as fold change compared to control. (J) PC-3 xenograft tumor tissue were fixed and sections were used for in situ PLA to analyze HSP60-ClpP interaction in these tissue samples. […] All animals were sacrificed at 16 weeks of age and prostate tissue and tumors were harvested, whole cell lysate were prepared and analyzed for HSP60 and ClpP expression (N); c-Myc and EZH2 expression (0) and SYP and CK 8/18 expression (P) by immunoblotting. […]
Ablation of HSP60-ClpP interaction by DCEM1 downregulates c-Myc, EZH2 and AR as well as inhibits tumor growth in vivo. […] The effect of DCEM1 on 22RV1 (AR positive) and PC-3 (AR negative) xenografts growth in SCID mice was analyzed. […]

PC-3 cells = experiment: Oxygen consumption rate (OCR); type: cell-based; settings: DCEM1 100 nM, 500 nM, 1 μM, 5 μM
[2] = system: HSP60, HSP10, ClpP and LONP1; experiment: Expression of UPRmt components after DCEM1; type: cell-based; settings: PCa cells
LNCaP and PC-3 cells = experiment: mtDNA damage analysis; type: cell-based; settings: 24 hours
Experimental: (§1) FIG. 6. Pharmacological inhibition of HSP60-ClpP interaction induces UPR^mt and PCa cell death. (A) Docking of DCEM1 into apical domain of HSP60. (B) LNCaP and PC-3 cells were treated with DCEM1 for 24 hours and HSP60-ClpP interaction was analyzed by co-immunoprecipitation assay. (C) LNCaP and PC-3 cells were treated with DCEM1 for 24 hours and mitoROS levels were analyzed by flow cytometry using mitoSOX dye. (D) LNCaP and PC-3 cells were treated with DCEM1 for 24 hours and poly-Ub protein levels were analyzed by western blotting. (E) LNCaP and PC-3 cells were treated with DCEM1 for 24 and 48 hours and apoptotic cell populations were analyzed by flow cytometry using Annexin V FITC/PI method as explained in materials and methods. In (E) top panel, the bars in each series from left to right are control, 5, 10, and 20, and in (E) bottom panel, the bars in each series from left to right are DMSO, 5, 10, and 20. (F) LNCaP and PC-3 cells were treated with DCEM1 for 24 and 48 hours and lysates were prepared and analyzed for DEVDase activity using specific peptide substrate. […] (G) LNCaP and PC-3 cells were pre-treated with SKQ1 followed by DCEM1 treatment and analyzed for cell viability by MTT assay. (H) LNCaP and PC-3 cells were treated with either DCEM1 or H2O2 (200 μM) for 24 hours and total DNA were isolated and analyzed for mtDNA damage as described in materials and methods. […]

HSP60-ClpP interaction [3] = molecular target: T1, HSP60-ClpP interaction (Homo sapiens, UniProt P10809); experiment: Proximity ligation assay (PLA) of HSP60-ClpP in PCa cells; type: cell-based; settings: data not shown
T1 construct: endogenous in cells
Experimental: (§2) Identification of novel inhibitor of HSP60-ClpP interaction that disrupts UPR^mt function and induces PCa cell death. Having shown that two arms of UPR^mt, HSP60 chaperonin and ClpP protease interact and play critical role in PCa cell survival, an in silico analysis was performed and a small molecule library (developed by Enamine Ltd) was screened to identify drugs targeting the apical domain of HSP60 critical for its interaction with ClpP. 9 compounds (A-I) were identified and screened for their cell death inducing potential in PCa cells (data not shown). […] Colony forming ability of PCa cells was inhibited by DCEM1 treatment (data not shown).

PCa cells = experiment: Colony forming ability of PCa cells; type: cell-based; settings: data not shown
Experimental: as §2

HSP60-ClpP interaction [4] = molecular target: T1, HSP60-ClpP interaction; experiment: HSP60-ClpP co-immunoprecipitation assay in PCa cells; type: cell-based; settings: LNCaP and PC-3 cells, 24 hours
Experimental: as §1

T1 sequence (P10809 27-573): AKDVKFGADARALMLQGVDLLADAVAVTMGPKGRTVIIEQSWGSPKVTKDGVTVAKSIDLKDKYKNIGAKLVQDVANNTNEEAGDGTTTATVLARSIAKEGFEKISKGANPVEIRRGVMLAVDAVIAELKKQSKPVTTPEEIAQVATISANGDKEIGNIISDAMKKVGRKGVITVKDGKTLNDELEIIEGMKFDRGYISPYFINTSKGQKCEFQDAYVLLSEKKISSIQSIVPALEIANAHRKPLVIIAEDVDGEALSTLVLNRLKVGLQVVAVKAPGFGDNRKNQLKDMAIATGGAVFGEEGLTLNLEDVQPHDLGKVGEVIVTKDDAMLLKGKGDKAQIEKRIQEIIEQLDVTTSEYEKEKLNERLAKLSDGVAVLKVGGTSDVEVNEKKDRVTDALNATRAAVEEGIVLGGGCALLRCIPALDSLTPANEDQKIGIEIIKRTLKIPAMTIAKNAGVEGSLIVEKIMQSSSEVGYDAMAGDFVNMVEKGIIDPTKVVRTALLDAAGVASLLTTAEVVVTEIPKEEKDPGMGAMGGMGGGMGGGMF

## CCOc1cc(CNCc2nc3ccccc3[nH]2)ccc1OCc1cccs1 [DCEM1]
[1]; IP, twice weekly
  caspase-3 (DEVDase) activity in 22RV1 xenograft tumors: induced
[1]; IP, twice weekly, 30 days
  tumor volume and weight, 22RV1 xenografts: effectively inhibited
[1]; immunohistochemistry
  expression of Ki67, c-Myc, EZH2 and AR in 22RV1 xenograft: downregulated expression of Ki67, c-Myc, EZH2 and AR
PC-3 cells
  oxygen consumption rate (OCR): reduction in oxygen consumption rate
[2]
  expression of UPRmt components HSP60, HSP10, ClpP and LONP1: failed to alter
LNCaP and PC-3 cells
  mtDNA damage: Severe mtDNA damage
HSP60-ClpP interaction [3]
  HSP60-ClpP interaction by PLA: efficiently inhibited HSP60-ClpP interaction
PCa cells
  colony forming ability of PCa cells: inhibited
HSP60-ClpP interaction [4]
  HSP60-ClpP interaction by co-immunoprecipitation: inhibited HSP60-ClpP interactions in a dose dependent manner
